Experimental data reported in patent US4466952A, “Compositions and process for the treatment of cancer” (Indiana University Foundation, priority 1983, dated 1984).

Key:
[1] = target: T1, Calf uterine cytosolic estrogen receptor (Bos taurus, UniProt P49884); test: Estrogen Receptor assay, competition with 6,7-3H2-estradiol; format: binding
T1 construct: Calf uterine cytosolic estrogen receptor; from tissue; host or cells: calf uterus, cytosol
T1 sequence (P49884 1-596): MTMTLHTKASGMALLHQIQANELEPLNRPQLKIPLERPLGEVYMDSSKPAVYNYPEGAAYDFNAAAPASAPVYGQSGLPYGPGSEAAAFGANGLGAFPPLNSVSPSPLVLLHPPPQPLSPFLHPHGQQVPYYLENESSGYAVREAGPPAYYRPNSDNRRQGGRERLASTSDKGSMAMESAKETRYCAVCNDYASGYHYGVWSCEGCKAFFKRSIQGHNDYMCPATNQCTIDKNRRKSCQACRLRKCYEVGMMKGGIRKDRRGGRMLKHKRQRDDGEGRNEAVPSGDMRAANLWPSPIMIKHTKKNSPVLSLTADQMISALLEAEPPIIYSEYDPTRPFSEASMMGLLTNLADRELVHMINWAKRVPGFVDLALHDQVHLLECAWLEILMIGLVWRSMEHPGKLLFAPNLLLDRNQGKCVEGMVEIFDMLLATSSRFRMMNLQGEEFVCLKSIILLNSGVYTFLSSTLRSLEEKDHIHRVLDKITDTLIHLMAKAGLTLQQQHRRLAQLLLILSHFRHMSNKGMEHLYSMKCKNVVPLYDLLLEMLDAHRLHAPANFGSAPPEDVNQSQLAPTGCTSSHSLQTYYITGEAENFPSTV

[2] = tested on: infantile female white swiss mouse; test: Uterotropic Assay compared to estrone as standard; format: in vivo
[3] = as described for the prior art; cited from earlier work
estrogen receptors = settings: as described for the prior art; cited from earlier work

(17β)-17-(1,2-dicarbadodecaboran(12)-1-yl)estra-1,3,5(10)-triene-3,17-diol 17-acetate [III]
estrophilic activity relative to estradiol-17β 3-carboranylmethyl ether ([1]; compared with value reported in Steroids 37, 223 (1981)): about two
50% inhibition to binding ([1]; competition with 6,7-3H2-estradiol): 1 Mole equivalent
uterotropic activity relative to estrone ([2]; 3×3 assay, 5-6 animals per dose, estrone as standard): about 80%
response compared to estrone (uterotropic) ([2]; 4×4 assay, 9-10 animals per dose, estrone as standard): 63%
uterotopic response of estrone ([2]; summary statement, relative to estrone): at least 63%

estradiol-17β 3-carboranylmethyl ether
uterotopic activity [3]: very low
estrophilic activity (estrogen receptors): very low
